Experimental data published in patent publication EP2103618A1, “Novel ansamitocin derivatives” (Leibniz Universität Hannover, priority 2008, dated 2009).
≈ marks a conversion by molar mass, not a printed value.

Columns and labels:
Format in all cases: cell-based
[1] = tested on: A-431; test: Growth inhibition of cultured human tumor cell lines in microtiter plates, MTT assay; settings: A-431, Epidermoid carcinoma, 5 days; for IC50: Homo sapiens, 120 h, read-out: Antiproliferative activity IC50
Method: (§1) For the detailed evaluation of their biological profile as anti-cancer agents, cultured human tumor cell lines were treated with the new ansamitocin derivatives. In particular, the 19-fluoro-20-demethoxyansamitocin P3 (F-A), 19-chloro-20-demethoxyansamitocin P3 (Cl-A), 19-bromo-20-demethoxyansamitocin P3 (Br-A), and the 20-demethoxy-19-vinylansamitocin P3 (VI) were tested for their inhibitory effect on cell growth of different cell lines, namely KB-3-1, U-937, PC-3, SK-OV-3, A-498, A-431, and A-549, in comparison to natural biosynthesis product Ansamitocin P-3 (AP-3). Growth inhibition was measured in microtiter plates. 60 µl of serial dilutions of the test compounds were added to aliquots of 120 µl of the suspended cells (50000/ml). After 5 days the growth was determined using a MTT assay, except for U-937, where the WST-1 assay from Roche was employed.

[2] = tested on: A-498; test: as above; settings: A-498, Kidney carcinoma, 5 days; for IC50: Homo sapiens, A498, 120 h, read-out: Antiproliferative activity IC50
Method: as §1

[3] = tested on: A-549; test: as above; settings: A-549, Lung carcinoma, 5 days; for IC50: Homo sapiens, A549, 120 h, read-out: Antiproliferative activity IC50
Method: as §1

[4] = tested on: KB-3-1; test: as above; settings: KB-3-1, Cervix carcinoma, 5 days; for IC50: Homo sapiens, 120 h, read-out: Antiproliferative activity IC50
Method: as §1

[5] = tested on: PC-3; test: as above; settings: PC-3, Prostate carcinoma, 5 days; for IC50: Homo sapiens, 120 h, read-out: Antiproliferative activity IC50
Method: as §1

[6] = tested on: SK-OV-3; test: as above; settings: SK-OV-3, Ovarian carcinoma, 5 days; for IC50: Homo sapiens, 120 h, read-out: Antiproliferative activity IC50
Method: as §1

[7] = tested on: U-937; test: Growth inhibition of cultured human tumor cell lines in microtiter plates, WST-1 assay; settings: U-937, Lymphoma, 5 days; for IC50: Homo sapiens, 120 h, read-out: Antiproliferative activity IC50
Method: as §1

[8] = tested on: cultured human tumor cell lines; test: Growth inhibition, statements across the whole panel of cell lines; settings: for activity among the compounds tested: in general, across the cell lines, result in words
Method: as §1

| Molecule | IC50 [1] [ng/mL] | IC50 [2] [ng/mL] | IC50 [3] [ng/mL] | IC50 [4] [ng/mL] | IC50 [5] [ng/mL] | IC50 [6] [ng/mL] | IC50 [7] [ng/mL] | activity among the compounds tested [8] | other results |
| --- | --- | --- | --- | --- | --- | --- | --- | --- | --- |
| CO[C@@H]1/C=C/C=C(\C)Cc2ccc(Cl)c(c2)N(C)C(=O)C[C@H](OC(=O)C(C)C)[C@]2(C)O[C@H]2[C@H](C)[C@@H]2C[C@@]1(O)NC(=O)O2 [Cl-A, 19-chloro-20-demethoxyansamitocin P3] | 0.15 (≈ 0.248 nM) | 3 (≈ 4.96 nM) | 0.4 (≈ 0.661 nM) | 0.35 (≈ 0.578 nM) | 0.12 (≈ 0.198 nM) | 0.1 (≈ 0.165 nM) | 0.035 (≈ 0.0578 nM) | – | activities weaker than that of the natural AP-3 [8]: 3-50 times |
| 20-demethoxy-19-vinylansamitocin P3 | – | – | – | – | – | – | – | most active | – |
| CO[C@@H]1/C=C/C=C(\C)Cc2ccc(F)c(c2)N(C)C(=O)C[C@H](OC(=O)C(C)C)[C@]2(C)O[C@H]2[C@H](C)[C@@H]2C[C@@]1(O)NC(=O)O2 [F-A, 19-fluoro-20-demethoxyansamitocin P3] | 0.04 (≈ 0.0679 nM) | 2 (≈ 3.4 nM) | 0.11 (≈ 0.187 nM) | 0.18 (≈ 0.306 nM) | 0.035 (≈ 0.0595 nM) | 0.035 (≈ 0.0595 nM) | 0.01 (≈ 0.017 nM) | – | – |
| 19-fluoro-20-demethoxyansamitocin P3 [F-A] | – | – | – | – | – | – | – | most active | – |
| CO[C@@H]1/C=C/C=C(\C)Cc2ccc(Br)c(c2)N(C)C(=O)C[C@H](OC(=O)C(C)C)[C@]2(C)O[C@H]2[C@H](C)[C@@H]2C[C@@]1(O)NC(=O)O2 [Br-A, 19-bromo-20-demethoxyansamitocin P3] | – | – | – | – | – | – | – | – | Antiproliferative activity IC50 [1]: 0.1 ng/mL; Antiproliferative activity IC50 [2]: 4 ng/mL; Antiproliferative activity IC50 [3]: 0.3 ng/mL; Antiproliferative activity IC50 [4]: 0.3 ng/mL; Antiproliferative activity IC50 [5]: 0.1 ng/mL; Antiproliferative activity IC50 [6]: 0.05 ng/mL; Antiproliferative activity IC50 [7]: 0.03 ng/mL |
| COc1cc2cc(c1Cl)N(C)C(=O)C[C@H](OC(=O)C(C)C)[C@]1(C)O[C@H]1[C@H](C)[C@@H]1C[C@@](O)(NC(=O)O1)[C@H](OC)/C=C/C=C(\C)C2 [AP-3, Ansamitocin P-3, reference compound] | 0.05 (≈ 0.0787 nM) | 1.1 (≈ 1.73 nM) | 0.1 (≈ 0.157 nM) | 0.11 (≈ 0.173 nM) | 0.035 (≈ 0.0551 nM) | 0.03 (≈ 0.0472 nM) | 0.0035 (≈ 0.00551 nM) | – | – |
